From US20260167637A1, “NLRP3 INFLAMMASOME INHIBITOR AND USE THEREOF” (TransThera Sciences (Nanjing), Inc., priority 2022, published 2026)

How the values were obtained:
THP-1 cell NLRP3 = target: T1, THP-1 cell NLRP3 (Homo sapiens, UniProt Q96P20); test: Inhibitory activity against cell NLRP3 inflammasomes in THP-1 cells (LPS + nigericin, ELISA of supernatant); type: cell-based; conditions: PMA-differentiated THP-1 cells, LPS 500 ng/mL 3 h, compound 1 h, nigericin 30 min; human IL-10 (so in the source) in supernatant by ELISA
T1 construct: endogenous in cells; host or cells: THP-1 cells, PMA-differentiated, stimulated with LPS and nigericin
Procedure, shortened: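 PMA-differentiated (10 ng/mL, 16 h) THP-1 cells primed with 500 ng/mL LPS for 3 h in serum-free medium, then compound for 1 h (DMSO stock diluted 1:1000). Nigericin added for 30 min at 37 °C; IL-1β (printed as IL-10) in supernatant measured by ELISA.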

[1] = Stability in canine liver microsomes; type: in vitro ADME; conditions: canine liver microsomes 0.5 mg protein/mL, 1 μM test substance, β-NADPH 1 mM, 37° C.; for microsomal CLint at 1 μM / half-life at 1 μM: dog; for half-life at 1 μM: read-out: Canine t1/2
Procedure: Experimental Example 2: Evaluation of Stability of Compounds Disclosed Herein in Liver Microsomes
Composition of experimental incubation system:
An appropriate amount of the compound was precisely weighed out and dissolved in DMSO to prepare a 10.0 mM stock solution. The 10.0 mM stock solution was diluted with DMSO to 1.0 mM, and then diluted with phosphate buffer (containing 3 mM MgCl2) to prepare a 10 μM test substance working solution for later use (DMSO content in the reaction system: 0.1%).
An appropriate amount of β-NADPH was precisely weighed out and then prepared into a 5 mM β-NADPH working solution using phosphate buffer (containing 3 mM MgCl2) for later use.
(1) The liver microsomes (20 mg protein/mL) were taken out from a −80° C. freezer and pre-incubated on a 37° C. water bath thermostatic oscillator for 3 min to thaw for later use.
(2) A mixed solution of the incubation system (without β-NADPH) was prepared according to “composition of experimental incubation system” described above, and pre-incubated on a 37° C. water bath thermostatic oscillator for 2 min.
(3) Control group (without β-NADPH): 10 μL of phosphate buffer (containing 3 mM MgCl2) and 40 μL of the mixed solution of the incubation system in step (2) were taken and mixed, and the mixture was vortexed for 30 s and mixed well, resulting in a total reaction volume of 50 μL; the sample was duplicated. The mixture was placed on a 37° C. water bath thermostatic oscillator for incubation, and timing was started, with termination time points set at 0 min and 60 min.
(4) Sample group: 10 μL of the β-NADPH solution (5 mM) and 40 μL of the mixed solution in step (2) were taken and mixed, resulting in a total reaction volume of 50 μL; the mixture was vortexed for 30 s and mixed well; the sample was duplicated. The mixture was placed on a 37° C. water bath thermostatic oscillator for incubation, and timing was started, with termination time points set at 0 min, 5 min, 10 min, 20 min, 30 min, and 60 min.
(5) The mixture was vortexed for 5 min and then centrifuged at 4000 rpm for 10 min.
(6) 50 μL of the supernatant was taken and added to 150 μL of water, and the resulting mixture was vortexed and mixed well before LC/MS/MS analysis.
The half-life (t1/2) and clearance rate (CL) were calculated using the following first-order kinetic formula
Notes: k denotes the slope of the logarithm of the remaining amount of a compound vs. time, and Vd denotes apparent volume of distribution.

T1 sequence (Q96P20 whole entry): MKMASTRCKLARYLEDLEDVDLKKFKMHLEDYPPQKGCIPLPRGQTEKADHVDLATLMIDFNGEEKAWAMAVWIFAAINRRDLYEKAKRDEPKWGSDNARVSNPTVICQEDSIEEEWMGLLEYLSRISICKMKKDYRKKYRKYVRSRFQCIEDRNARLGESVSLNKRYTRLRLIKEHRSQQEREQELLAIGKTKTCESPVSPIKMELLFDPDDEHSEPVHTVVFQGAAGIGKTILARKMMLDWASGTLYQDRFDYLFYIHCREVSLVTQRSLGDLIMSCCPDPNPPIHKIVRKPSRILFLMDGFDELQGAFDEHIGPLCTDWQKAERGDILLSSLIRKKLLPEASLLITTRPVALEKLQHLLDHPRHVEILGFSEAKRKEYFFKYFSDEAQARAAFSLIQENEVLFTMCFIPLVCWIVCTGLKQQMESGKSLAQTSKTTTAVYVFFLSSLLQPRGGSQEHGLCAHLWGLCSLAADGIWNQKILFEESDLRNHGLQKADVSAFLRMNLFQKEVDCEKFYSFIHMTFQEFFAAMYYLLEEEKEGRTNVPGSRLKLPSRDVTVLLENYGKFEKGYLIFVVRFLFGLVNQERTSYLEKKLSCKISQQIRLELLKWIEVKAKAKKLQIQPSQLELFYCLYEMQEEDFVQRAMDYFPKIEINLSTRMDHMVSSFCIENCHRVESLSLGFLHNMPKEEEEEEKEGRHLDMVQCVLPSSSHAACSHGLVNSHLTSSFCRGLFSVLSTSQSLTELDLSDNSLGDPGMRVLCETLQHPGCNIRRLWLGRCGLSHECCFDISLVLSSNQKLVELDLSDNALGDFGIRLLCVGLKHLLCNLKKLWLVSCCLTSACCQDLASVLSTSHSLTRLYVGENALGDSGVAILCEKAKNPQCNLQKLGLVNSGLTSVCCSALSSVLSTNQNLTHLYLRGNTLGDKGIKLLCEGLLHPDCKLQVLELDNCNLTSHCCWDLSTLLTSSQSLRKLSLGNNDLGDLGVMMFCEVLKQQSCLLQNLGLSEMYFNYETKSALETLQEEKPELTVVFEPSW

Row | IC50 (THP-1 cell NLRP3) [nM] | Canine t1/2 [1] | microsomal CLint at 1 μM [1] [µL/min/mg] | half-life at 1 μM [1] [min] | SMILES
1 | 2.4 | →∞ |  |  | C#Cc1ccc(-c2nnc(N[C@@H]3CCCN(C)C3)c(=O)n2C)c(O)c1 [Compound 23, (R)-3-(4-ethynyl-2-hydoxyphenyl)-4-methyl-6-((1-methylpiperidin-3-yl)amino)-1,2,4-triazin-5(4H)-one]
2 | 0.7 |  | 1.4 | 990 | C#Cc1ccc(-c2nnc(N[C@@H]3CCCN(CCO)C3)cc2C2CC2)c(O)c1 [Compound 45, (R)-2-(4-Cyclopropyl-6-((1-(2-hydroxyethyl)piperidin-3-yl)amino)pyridazin-3-yl)-5-ethynylphenol]
3 | 1.1 |  | 5 | 277 | C#Cc1ccc(-c2nnc(N[C@@H]3CCCN(C)C3)cc2C(C)C)c(O)c1 [Compound 81, (R)-5-ethynyl-2-(4-isopropyl-6-((1-methylpiperidin-3-yl)amino)pyridazin-3-yl)phenol]
4 | 0.6 |  | 8.4 | 165 | C#Cc1ccc(-c2nnc(N[C@@H]3CCCN(C)C3)c(C#N)c2C)c(O)c1 [Compound 103, (R)-6-(4-ethynyl-2-hydroxyphenyl)-5-methyl-3-((1-methylpiperidin-3-yl)amino)pyridazine-4-carbonitrile]
